The source of these data is ChEMBL document CHEMBL3351488, “Design, synthesis and biological evaluation of novel arylpiperazine derivatives on human prostate cancer cell lines” (Bioorg Med Chem Lett, 2015).

One assay deals with LNCaP. The assay can be described thus: Cytotoxicity against human LNCAP cells assessed as inhibition of cell viability after 24 hrs by CCK-8 assay. The format is functional, cell-based. On the technique in general: Formazan colour is commonly taken as a measure of viable cells.
Assay [1] can be described thus: Cytotoxicity against human RWPE1 cells assessed as inhibition of cell viability after 24 hrs by CCK-8 assay. The class given is cell-based. The conditions noted are these: RWPE-1, 24 h.
The subject of another assay is DU-145. Put plainly: Cytotoxicity against human DU145 cells assessed as inhibition of cell viability after 24 hrs by CCK-8 assay. The format is functional, cell-based. To be noted: DU-145, 24 h.
A short description of assay [2]: Cytotoxicity against human PC3 cells assessed as inhibition of cell viability after 24 hrs by CCK-8 assay. The format is functional, cell-based. To be noted: PC-3, 24 h.

What is called IC50 is the concentration needed to halve the response being measured. For the compound `COc1cc(OC)cc(OCc2ccc(CCN3CCN(c4ccccc4C)CC3)cc2)c1`, the IC50 in the assay on LNCaP came to 35.8 µM; in assay [1] it was 35.6 µM; in the assay with DU-145, 19.3 µM; in assay [2], 30.2 µM.
For `COc1cc(OC)cc(OCc2ccc(CCN3CCN(c4ccc(F)cc4F)CC3)cc2)c1`, the IC50 in the assay on LNCaP is over 50 µM; in assay [1], over 50 µM; in the assay with DU-145, 24.2 µM; in assay [2], 35.4 µM.
In the case of `COc1cc(OC)cc(OCc2ccc(CCN3CCN(c4cc(C)ccc4C)CC3)cc2)c1`, the IC50 was 36.1 µM with LNCaP, over 50 µM in assay [1], 27.6 µM in the assay on DU-145 and 31 µM in assay [2].
Taken in the same sequence, the figures for `COc1cc(OC)cc(OCc2ccc(CCN3CCN(c4ccccc4)CC3)cc2)c1` were over 50 µM, over 50 µM, 25 µM and 31.2 µM.
On to `COc1cc(OC)cc(OCc2ccc(CCN3CCN(c4ccccc4C(F)(F)F)CC3)cc2)c1`, for which the 50% inhibitory concentration (IC50) was over 50 µM in the assay on LNCaP, over 50 µM in assay [1], 39.2 µM with DU-145 and 40.3 µM in assay [2].
For `COc1cc(OC)cc(OCc2ccc(CCN3CCN(c4ccc(Br)cc4)CC3)cc2)c1`, the IC50 with LNCaP was over 50 µM; in assay [1], over 50 µM; with DU-145, 29.5 µM; in assay [2], 25.6 µM.
On to `COc1cc(OC)cc(OCc2ccc(CCN3CCN(c4ccccc4Cl)CC3)cc2)c1`, for which the IC50 with LNCaP is 32.5 µM; in assay [1], over 50 µM; in the assay on DU-145 it was 23.2 µM; in assay [2], 25.2 µM.
In the case of `COc1cc(OC)cc(OCc2ccc(CCN3CCN(c4cccc(Cl)c4)CC3)cc2)c1`, the IC50 in the assay with LNCaP is 36.6 µM; in assay [1], over 50 µM; in the assay on DU-145, 27.1 µM; in assay [2] it was 30.9 µM.
As for `COc1ccccc1N1CCN(CC(O)COc2cccc3ccccc23)CC1` (centres undefined) [NAFTOPIDIL], the IC50 in the assay on LNCaP is 22.4 µM; in assay [1] it was over 50 µM; in the assay with DU-145 it was 34.6 µM; in assay [2], 42.1 µM.
For the compound `COc1cc(OC)cc(OCc2ccc(CCN3CCN(c4cc(Cl)ccc4C)CC3)cc2)c1`, the IC50 with LNCaP was found to be 2.73 µM; in assay [1], 36.5 µM; in the assay with DU-145, 28 µM; in assay [2], 32.2 µM.
For the compound `COc1ccc(N2CCN(CCc3ccc(COc4cc(OC)cc(OC)c4)cc3)CC2)cc1`, the IC50 in the assay on LNCaP was over 50 µM; in assay [1], over 50 µM; in the assay on DU-145 it was 19.2 µM; in assay [2], 32.9 µM.
As for `COc1cc(OC)cc(OCc2ccc(CCN3CCN(c4ccc(C)cc4)CC3)cc2)c1`, the IC50 in the assay with LNCaP was 35.2 µM; in assay [1], over 50 µM; in the assay with DU-145 it was 24.1 µM; in assay [2], 48.2 µM.
As for `COc1cc(OC)cc(OCc2ccc(CCN3CCN(c4ccccc4F)CC3)cc2)c1`, the IC50 amounted to 7.25 µM in the assay with LNCaP, 35.4 µM in assay [1], 25.4 µM with DU-145 and 25.3 µM in assay [2].
Regarding `COc1cc(OC)cc(OCc2ccc(CCN3CCN(c4ccccc4OC)CC3)cc2)c1`, the IC50 in the assay on LNCaP came out at 26.3 µM; in assay [1] it was 28.8 µM; with DU-145 it was 30.5 µM; in assay [2], 26.5 µM.
As for `COc1cc(OC)cc(OCc2ccc(CCN3CCN(c4ccc(Cl)cc4)CC3)cc2)c1`, the IC50 with LNCaP is over 50 µM; in assay [1] it was over 50 µM; in the assay on DU-145 it was 12.7 µM; in assay [2] it was 18.9 µM.
For the compound `COc1cc(OC)cc(OCc2ccc(CCN3CCN(Cc4ccccc4)CC3)cc2)c1`, the IC50 in the assay with LNCaP is 6.07 µM; in assay [1], over 50 µM; with DU-145, 5.83 µM; in assay [2] it was 6.79 µM.
With `COc1cc(OC)cc(OCc2ccc(CCN3CCN(c4cccc(OC)c4)CC3)cc2)c1`, the IC50 with LNCaP came out at 20 µM; in assay [1], 39.9 µM; in the assay on DU-145, 16.9 µM; in assay [2], 25.3 µM.
For `COc1cc(OC)cc(OCc2ccc(CCN3CCN(c4ccc(F)cc4)CC3)cc2)c1`, the IC50 in the assay on LNCaP was 35 µM; in assay [1], over 50 µM; in the assay on DU-145, 28.2 µM; in assay [2], 28.8 µM.
With `COc1cc(OC)cc(OCc2ccc(CCN3CCN(c4ccccc4S(C)(=O)=O)CC3)cc2)c1`, the IC50 with LNCaP was 0.97 µM; in assay [1], over 50 µM; with DU-145, 7.68 µM; in assay [2] it was 9.42 µM.
As to `COc1cc(OC)cc(OCc2ccc(CCN3CCN(c4ccccn4)CC3)cc2)c1`, the IC50 was 42.3 µM in the assay with LNCaP, over 50 µM in assay [1], 16.8 µM in the assay on DU-145 and 25.6 µM in assay [2].
`COc1cc(OC)cc(OCc2ccc(CCN3CCN(c4ccc(C#N)cc4)CC3)cc2)c1`: the IC50 in the assay on LNCaP is over 50 µM; in assay [1], 45.8 µM; in the assay on DU-145, 46.3 µM; in assay [2], 27.6 µM.
As for `COc1cc(OC)cc(OCc2ccc(CCN3CCN(c4cccc(Cl)c4Cl)CC3)cc2)c1`, the IC50 is over 50 µM with LNCaP, 36.6 µM in assay [1], 30.2 µM in the assay on DU-145 and 18.4 µM in assay [2].
As for `COc1cc(OC)cc(OCc2ccc(CCN3CCN(c4cc(Cl)ccc4OC)CC3)cc2)c1`, the IC50 with LNCaP was 39.8 µM; in assay [1], over 50 µM; in the assay on DU-145, 26.7 µM; in assay [2], 27.1 µM.
In the case of `CCOc1ccccc1N1CCN(CCc2ccc(COc3cc(OC)cc(OC)c3)cc2)CC1`, the IC50 with LNCaP is over 50 µM; in assay [1] it was over 50 µM; in the assay with DU-145, 27.2 µM; in assay [2] it was 27.1 µM.
Consider `COc1cc(OC)cc(OCc2ccc(CCN3CCN(c4ccc(C(F)(F)F)cc4)CC3)cc2)c1`, for which the IC50 in the assay with LNCaP is over 50 µM; in assay [1], over 50 µM; in the assay on DU-145, 28.5 µM; in assay [2], 23.8 µM.
As to `COc1cc(OC)cc(OCc2ccc(CCN3CCN(c4cccc(C)c4)CC3)cc2)c1`, the IC50 with LNCaP is 2.35 µM; in assay [1], over 50 µM; in the assay with DU-145, 28.6 µM; in assay [2] it was 30.6 µM.
